Key:
Assay type in all cases: in vivo
[1] = test system: harmful plants which are typical of rice crops such as, for example, Cyperus monti, Echinochloa crus-galli and Sagittaria pygmaea; assay: Activity against harmful plants in rice (paddy rice conditions); settings: poured into paddy water at various dosages; scored about three weeks after application vs untreated controls; further: test concentration or dose not given here
Experimental: Transplanted and seeded rice and typical grass weeds and broad-leaved weeds in rice crops are grown in the greenhouse under paddy rice conditions (depth of the paddy water: 2-3 cm) in sealed plastic pots until they have reached the three-leaf stage (Echinochloa crus-galli 1.5-leaf). They are then treated with the compounds according to the invention. To this end, the formulated active substances are suspended, dissolved or emulsified in water and the product is poured into the paddy water of the test plants at various dosages. After the treatment has been carried out thus, the test plants are placed in the greenhouse under optimal growth conditions and kept like this over the entire experimental period.
About three weeks after application, the evaluation is carried out by is of visually scoring the plant damage in comparison with untreated controls.

[2] = test system: harmful plants such as Sinapis alba, Echinochloa crus-galli, Lolium multiflorum, Stellaria media, Cyperus iria, Amaranthus retroflexus, Setaria viridus and …; assay: Post-emergence herbicidal action (greenhouse pot test); settings: three-leaf stage, application rate of 1 kg and less of active substance per hectare, scored after approx. 3 to 4 weeks vs untreated controls
Experimental: Seeds or rhizome sections of monocotyledonous and dicotyledonous weeds are placed in sandy loam soil in plastic pots, covered with soil and grown in the greenhouse under good growth conditions. Three weeks after sowing, the experimental plants are treated at the three-leaf stage. The compounds according to the invention, which are formulated as wettable powders or as emulsion concentrates, are sprayed at various rates onto the green plant organs at an application rate of 600 to 800 l of water per ha (converted). After the experimental plants have remained in the greenhouse for approx. 3 to 4 weeks under optimal growth conditions, the effect of the compositions is scored visually in comparison with untreated controls. The substances according to the invention also have a good herbicidal action against a broad spectrum of economically important grass weeds and broad-leaved weeds when applied post-emergence.

[3] = test system: harmful plants such as Stellaria media, Lolium multiflorum, Amaranthus retroflexus, Sinapis alba, Avena sativa and Setaria viridis; assay: Pre-emergence herbicidal action (greenhouse pot test); settings: application rate of 1 kg or less active substance per hectare, scored after 3 to 4 weeks vs untreated controls
Description: Seeds and rhizome sections of monocotyledonous and dicotyledonous harmful plants are placed in sandy loam in plastic pots and covered with soil. The compounds according to the invention which are formulated in the form of wettable powders or emulsion concentrates at various rates, are then applied to the surface of the covering soil as aqueous suspension or emulsion at an application rate of 600 to 800 l of water per ha (converted).
After the treatment, the pots are placed in the greenhouse and kept under good growth conditions for the weeds. Visual scoring of the plant damage or the adverse effect on emergence is done after the test plants have emerged after an experimental period of 3 to 4 weeks in comparison with untreated controls.

CC(C)(F)c1nc(N)nc(NC(C2CCC2)[C@@H]2C[C@H]2c2ccccc2)n1 (relative stereo) [Example 4-1]
very good herbicidal activity: herbicidal activity, visual scoring of plant damage [1] | herbicidal activity, visual scoring [2] | herbicidal activity, visual scoring of plant damage or adverse effect on emergence [3]

CCC(Nc1nc(N)nc(C(C)(C)F)n1)[C@@H]1C[C@H]1c1ccccc1 (relative stereo) [Example 2-1, 2-Amino-4-(1-fluoro-1-methylethyl)-6-[1-(trans-2-phenylcyclopropyl)prop-1-ylamino]-1,3,5-triazine]
very good herbicidal activity: herbicidal activity, visual scoring of plant damage [1] | herbicidal activity, visual scoring [2] | herbicidal activity, visual scoring of plant damage or adverse effect on emergence [3]

CC(F)c1nc(N)nc(NC(C)[C@@H]2C[C@H]2c2ccccc2)n1 (relative stereo) [Example 1-2, 2-Amino-4-(1-fluoroethyl)-6-[1-(trans-2-phenylcyclopropyl)-1-ethylamino]-1,3,5-triazine]
very good herbicidal activity: herbicidal activity, visual scoring of plant damage [1] | herbicidal activity, visual scoring [2] | herbicidal activity, visual scoring of plant damage or adverse effect on emergence [3]

CC(C)c1nc(N)nc(NC(C)[C@@H]2C[C@H]2c2ccccc2)n1 (relative stereo) [Example 1-4]
very good herbicidal activity: herbicidal activity, visual scoring of plant damage [1] | herbicidal activity, visual scoring [2] | herbicidal activity, visual scoring of plant damage or adverse effect on emergence [3]

CCc1nc(N)nc(NC(C)[C@@H]2C[C@H]2c2ccccc2)n1 (relative stereo) [Example 1-6]
very good herbicidal activity: herbicidal activity, visual scoring of plant damage [1] | herbicidal activity, visual scoring [2] | herbicidal activity, visual scoring of plant damage or adverse effect on emergence [3]

CC(Nc1nc(N)nc(C(C)(C)F)n1)[C@@H]1C[C@H]1c1ccccc1 (relative stereo) [Example 1-1]
very good herbicidal activity: herbicidal activity, visual scoring of plant damage [1] | herbicidal activity, visual scoring [2] | herbicidal activity, visual scoring of plant damage or adverse effect on emergence [3]

CC(C)c1nc(N)nc(NC(C2CCC2)[C@@H]2C[C@H]2c2ccccc2)n1 (relative stereo) [Example 4-27]
very good herbicidal activity: herbicidal activity, visual scoring of plant damage [1] | herbicidal activity, visual scoring [2] | herbicidal activity, visual scoring of plant damage or adverse effect on emergence [3]

CCC(F)c1nc(N)nc(NC(C)[C@@H]2C[C@H]2c2ccccc2)n1 (relative stereo) [Example 1-3]
very good herbicidal activity: herbicidal activity, visual scoring of plant damage [1] | herbicidal activity, visual scoring [2] | herbicidal activity, visual scoring of plant damage or adverse effect on emergence [3]

CC(C)c1nc(N)nc(NC(CC2CC2)[C@@H]2C[C@H]2c2ccccc2)n1 (relative stereo) [Example 5-2]
very good herbicidal activity: herbicidal activity, visual scoring of plant damage [1] | herbicidal activity, visual scoring [2] | herbicidal activity, visual scoring of plant damage or adverse effect on emergence [3]

CC(F)c1nc(N)nc(NC(C2CCC2)[C@@H]2C[C@H]2c2ccccc2)n1 (relative stereo) [Example 4-3]
very good herbicidal activity: herbicidal activity, visual scoring of plant damage [1] | herbicidal activity, visual scoring [2] | herbicidal activity, visual scoring of plant damage or adverse effect on emergence [3]

CCC(F)c1nc(NC=O)nc(NC(CC2CC2)[C@@H]2C[C@H]2c2ccccc2)n1 (relative stereo) [Example 5-4]
very good herbicidal activity: herbicidal activity, visual scoring of plant damage [1] | herbicidal activity, visual scoring [2] | herbicidal activity, visual scoring of plant damage or adverse effect on emergence [3]

CC(C)(F)c1nc(N)nc(NC(CC2CC2)[C@@H]2C[C@H]2c2ccccc2)n1 (relative stereo) [Example 5-1]
very good herbicidal activity: herbicidal activity, visual scoring of plant damage [1] | herbicidal activity, visual scoring [2] | herbicidal activity, visual scoring of plant damage or adverse effect on emergence [3]

CCC(F)(CC)c1nc(N)nc(NC(C2CCC2)[C@@H]2C[C@H]2c2ccccc2)n1 (relative stereo) [Example 4-2]
very good herbicidal activity: herbicidal activity, visual scoring of plant damage [1] | herbicidal activity, visual scoring [2] | herbicidal activity, visual scoring of plant damage or adverse effect on emergence [3]

CC(C)c1nc(N)nc(NC(C2CC2)[C@@H]2C[C@H]2c2cc(Cl)cc(Cl)c2)n1 (relative stereo) [Example 3-28]
very good herbicidal activity: herbicidal activity, visual scoring of plant damage [1] | herbicidal activity, visual scoring [2] | herbicidal activity, visual scoring of plant damage or adverse effect on emergence [3]

CCC(F)c1nc(N)nc(NC(C2CCC2)[C@@H]2C[C@H]2c2ccccc2)n1 (relative stereo) [Example 4-4]
very good herbicidal activity: herbicidal activity, visual scoring of plant damage [1] | herbicidal activity, visual scoring [2] | herbicidal activity, visual scoring of plant damage or adverse effect on emergence [3]

CCC(Nc1nc(N)nc(C(C)F)n1)[C@@H]1C[C@H]1c1ccccc1 (relative stereo) [Example 2-3]
very good herbicidal activity: herbicidal activity, visual scoring of plant damage [1] | herbicidal activity, visual scoring [2] | herbicidal activity, visual scoring of plant damage or adverse effect on emergence [3]

CC(F)c1nc(N)nc(NC(C2CC2)[C@@H]2C[C@H]2c2ccccc2)n1 (relative stereo) [Example 3-3]
very good herbicidal activity: herbicidal activity, visual scoring of plant damage [1] | herbicidal activity, visual scoring [2] | herbicidal activity, visual scoring of plant damage or adverse effect on emergence [3]

CCC(F)c1nc(N)nc(NC(C2CC2)[C@@H]2C[C@H]2c2cc(Cl)cc(Cl)c2)n1 (relative stereo) [Example 3-27]
very good herbicidal activity: herbicidal activity, visual scoring of plant damage [1] | herbicidal activity, visual scoring [2] | herbicidal activity, visual scoring of plant damage or adverse effect on emergence [3]

CC(F)c1nc(N)nc(NC(C2CC2)[C@@H]2C[C@H]2c2cc(Cl)cc(Cl)c2)n1 (relative stereo) [Example 3-26]
very good herbicidal activity: herbicidal activity, visual scoring of plant damage [1] | herbicidal activity, visual scoring [2] | herbicidal activity, visual scoring of plant damage or adverse effect on emergence [3]

CC(C)(F)c1nc(N)nc(NC(C2CC2)[C@@H]2C[C@H]2c2ccccc2)n1 (relative stereo) [Example 3-1]
very good herbicidal activity: herbicidal activity, visual scoring of plant damage [1] | herbicidal activity, visual scoring [2] | herbicidal activity, visual scoring of plant damage or adverse effect on emergence [3]

CCC(F)(CC)c1nc(N)nc(NC(CC2CC2)[C@@H]2C[C@H]2c2ccccc2)n1 (relative stereo) [Example 5-3]
very good herbicidal activity: herbicidal activity, visual scoring of plant damage [1] | herbicidal activity, visual scoring [2] | herbicidal activity, visual scoring of plant damage or adverse effect on emergence [3]

CC(C)(F)c1nc(N)nc(NC(C2CCC2)[C@@H]2C[C@H]2c2cccc(Cl)c2)n1 (relative stereo) [Example 4-28]
very good herbicidal activity: herbicidal activity, visual scoring of plant damage [1] | herbicidal activity, visual scoring [2] | herbicidal activity, visual scoring of plant damage or adverse effect on emergence [3]

CCC(Nc1nc(N)nc(C(C)C)n1)[C@@H]1C[C@H]1c1ccccc1 (relative stereo) [Example 2-2]
very good herbicidal activity: herbicidal activity, visual scoring of plant damage [1] | herbicidal activity, visual scoring [2] | herbicidal activity, visual scoring of plant damage or adverse effect on emergence [3]

CCC(F)c1nc(N)nc(NC(C2CC2)[C@@H]2C[C@H]2c2ccccc2)n1 (relative stereo) [Example 3-4]
very good herbicidal activity: herbicidal activity, visual scoring of plant damage [1] | herbicidal activity, visual scoring [2] | herbicidal activity, visual scoring of plant damage or adverse effect on emergence [3]

Reference: patent US20030104945A1, “2,4-Diamino-1,3,5-triazines, their preparation, and their use as herbicides and plant growth regulators” (priority 2001, published 2003)
